The data set in a line: Photochromic properties of spiropyran compounds in methyl polymethacrylate film. As to conditions: for ε (60 sec.) -ε (0 sec.): absorbancy at max. absorption wavelength, irradiated 60 seconds minus not irradiated; for ε (60 sec.) -ε (0 sec.) / Developed color tone: 25° C.; for λ MAX (max. absorption wavelength): color-developing film, spectrophotometer 220A; for Developed color tone: film 1.0×10^-4 mol/g, 0.1 mm thick, mercury lamp, 10 cm, 60 seconds; for t1/2 (half-value period): time until absorbancy decreases to one-half {ε(60 sec)-ε(0 sec)} after irradiation for 60 seconds. It is filed as physicochemical. Here is the method: The concentration of the above compound contained in the film was adjusted to be 1.0×10^-4 mol/g and the thickness was adjusted to be 0.1 mm. The photochromic film was exposed to the light of a mercury lamp SHL-100 produced by Toshiba Co. at a temperature of 25° C.+1° C. from a distance of 10 cm for 60 seconds so as to develop a color, in order to measure its photochromic properties. The photochromic properties were expressed as described below.
Max. absorption wavelength (λmax)
λmax of the color-developing film was found by using a spectrophotometer 220A manufactured by Hitachi, Ltd.
Absorbancy of the film at a maximum absorption wavelength after irradiated with light for 60 seconds under the above-mentioned conditions.
Absorbancy of the film that is not irradiated with light at a maximum absorption wave of when it is irradiated with light.
Time needed until the absorbancy of the film decreases to one-half {ε(60 sec)-ε(0 sec)} after irradiated with light for 60 seconds.

As for `CCCCC1=CC2(Oc3c(C#N)cccc31)C1C=CCC2CCC1` (stereo not shown) [compound 29, 8'-Cyano-4'-n-butylspiro(2-bicyclo(3,3,1)nonene-9,2'-(2H)chromene)], the “ε (60 sec.) -ε (0 sec.)” value is reported as 0.5, the “λ MAX (max. absorption wavelength)” value was 494 nm, the Developed color tone entry is “orange” and the “t1/2 (half-value period)” value worked out at 11 s.
For the compound `CCC1=C(Cc2ccccc2)C2(Oc3scc(Br)c31)C1C=CCC2CCC1` (stereo not shown) [compound 39, 4'-Ethyl-3'-benzyl-5'-bromospiro(2-bicyclo[3,3,1]nonene-9,2'-(2H)thieno(2,3-b)pyran)], the “ε (60 sec.) -ε (0 sec.)” value came to 0.6, the “λ MAX (max. absorption wavelength)” value was found to be 465 nm, the Developed color tone entry is reported as “orange” and the “t1/2 (half-value period)” value was determined as 12 s.
With `COc1ccc(C2=Cc3c(ccc4ccccc34)OC23C2C=CCC3CCC2)cc1` (stereo not shown) [compound 36, 3'-p-methoxyphenylspiro(2-bicyclo[3,3,1]nonene-9,2'-(2H)benzo(f)chromene)], the “ε (60 sec.) -ε (0 sec.)” value worked out at 0.9, the “λ MAX (max. absorption wavelength)” value was 420 nm, the Developed color tone result was “yellow” and the “t1/2 (half-value period)” value worked out at 25 s.
Taken in the same sequence, the figures for `CCCC1=C(Cc2ccccc2)c2c(ccc3ccccc23)OC12C1C=CCC2CCC1` (stereo not shown) [compound 40, 3'-n-Propyl-4'-benzylspiro(2-bicyclo[3,3,1]nonene-9,2'-(2H)benzo(f)chromene)] were 0.8, 420 nm, “yellow” and 14 s.
Consider `C1=CC2CCCC(C1)C21Oc2ccc3ccccc3c2C=C1CCc1ccccc1` (stereo not shown) [compound 34, 3'-Benzylmethylspiro(2-bicyclo[3,3,1]nonene-9,2'-(2H)benzo(f)chromene)], for which the “ε (60 sec.) -ε (0 sec.)” value is listed as 0.7, the “λ MAX (max. absorption wavelength)” value is recorded as 406 nm, the Developed color tone result is recorded as “yellow” and the “t1/2 (half-value period)” value worked out at 26 s.
For `C1=CC2CCCC(C1)C21Oc2ccc3ccccc3c2C(c2ccccc2)=C1CCc1ccccc1` (stereo not shown) [compound 41, 3'-Benzylmethyl-4'-phenylspiro(2-bicyclo[3,3,1]nonene-9,2'-(2H)benzo(f)chromene)], the “ε (60 sec.) -ε (0 sec.)” value was 0.7, the “λ MAX (max. absorption wavelength)” value is given as 440 nm, the Developed color tone entry is reported as “yellow” and the “t1/2 (half-value period)” value worked out at 17 s.
Regarding `CCCC1=Cc2c(ccc3ccccc23)OC12C1C=CCC2CCC1` (stereo not shown) [compound 33, 3'-n-Propylspiro(2-bicyclo[3,3,1]nonene-9,2'-(2H)benzo(f)chromene)], the “ε (60 sec.) -ε (0 sec.)” value is 0.6, the “λ MAX (max. absorption wavelength)” value is recorded as 410 nm, the Developed color tone entry is recorded as “yellow” and the “t1/2 (half-value period)” value turned out to be 18 s.
As for `CC(C)C1=Cc2c(ccc3ccccc23)OC12C1C=CCC2CCC1` (stereo not shown) [compound 35, 3'-i-Propylspiro(2-bicyclo[3,3,1]nonene-9,2'-(2H)benzo(f)chromene)], the “ε (60 sec.) -ε (0 sec.)” value is recorded as 0.6, the “λ MAX (max. absorption wavelength)” value worked out at 410 nm, the Developed color tone result is “yellow” and the “t1/2 (half-value period)” value was found to be 18 s.
In the case of `ClC12CC=CC(CCC1)C21C=C(Cc2ccccc2)c2c(cnc3ccccc23)O1` (stereo not shown) [compound 28, 5-Chloro-4'-benzylspiro(2-bicyclo(3,3,1)nonene-9,2'-(2H)quino(3,4-b)pyran)], the “ε (60 sec.) -ε (0 sec.)” value stood at 0.9, the “λ MAX (max. absorption wavelength)” value was found to be 402 nm, the Developed color tone result was “yellow” and the “t1/2 (half-value period)” value amounted to 16 s.
Turning to `CC1(C)CCC2(C)CC=CC1C21C=C(c2ccccc2)c2cccnc2O1` (stereo not shown) [compound 30], the “ε (60 sec.) -ε (0 sec.)” value worked out at 0.6, the “λ MAX (max. absorption wavelength)” value came to 480 nm, the Developed color tone entry is listed as “orange” and the “t1/2 (half-value period)” value came to 26 s.
Consider `CCCC12CC=CC(CCC1)C21C=C(CC)c2ccc3c(-c4ccccc4)cccc3c2O1` (stereo not shown) [compound 31, 7'-Phenyl-4'-ethyl-5-n-propylspiro(2-bicyclo[3,3,1]nonene-9,2'-(2H)benzo(h)chromene)], for which the “ε (60 sec.) -ε (0 sec.)” value is reported as 0.7, the “λ MAX (max. absorption wavelength)” value is given as 460 nm, the Developed color tone entry is reported as “yellow” and the “t1/2 (half-value period)” value worked out at 90 s.
As for “Spiro(2-bicyclo(3,3,1)nonene-9,2'-(2H)methylpyrrolo(2,3-b)pyran) [compound 27]”, the “ε (60 sec.) -ε (0 sec.)” value was determined as 1.0, the “λ MAX (max. absorption wavelength)” value came to 470 nm, the Developed color tone result is “orange” and the “t1/2 (half-value period)” value came to 48 s.
With “3',4'-Dimethylspiro(2-bicyclo[3,3,1]nonene-9,2'-(2H)fluoro(2,3-b)pyran) [compound 38]”, the “ε (60 sec.) -ε (0 sec.)” value amounted to 0.6, the “λ MAX (max. absorption wavelength)” value is listed as 430 nm, the Developed color tone entry is “yellow” and the “t1/2 (half-value period)” value was found to be 10 s.
Turning to `CCC1=C(CC)C2(Oc3c1ccc1ccccc31)C1C=CCC2CCC1` (stereo not shown) [compound 42, 3',4'-Diethylspiro(2-bicyclo[3,3,1]nonene-9,2'-(2H)benzo(h)chromene)], the “ε (60 sec.) -ε (0 sec.)” value is on record as 1.0, the “λ MAX (max. absorption wavelength)” value came to 450 nm, the Developed color tone result is on record as “yellow” and the “t1/2 (half-value period)” value worked out at 28 s.
In the case of `CCC1=Cc2c(cnc3ccccc23)OC12C1C=CCC2CCC1` (stereo not shown) [compound 37, 3'-Ethylspiro(2-bicyclo[3,3,1]nonene-9,2'-(2H)quino(3,4-b)pyran)], the “ε (60 sec.) -ε (0 sec.)” value stood at 0.5, the “λ MAX (max. absorption wavelength)” value was determined as 415 nm, the Developed color tone result is given as “yellow” and the “t1/2 (half-value period)” value stood at 22 s.
As to `CCCCC1=CC2(Oc3c1ccc1ccccc31)C1C=CCC2CCC1` (stereo not shown) [compound 32, 4'-n-Butylspiro(2-bicyclo[3,3,1]nonene-9,2'-(2H)benzo(h)chromene)], the “ε (60 sec.) -ε (0 sec.)” value is listed as 0.8, the “λ MAX (max. absorption wavelength)” value stood at 445 nm, the Developed color tone entry is given as “yellow” and the “t1/2 (half-value period)” value was 110 s.

For the origin of these results see patent US5693830A, “Process for preparing the spiropyrone compounds” (Tokuyama Corporation, priority 1994, dated 1997).
